From publication PMC10746543, “Design principles for cyclin K molecular glue degraders” (Nature Chemical Biology, 2023)
Values joined by “and” are separate entries in the source; they are usually repeats but may differ in a detail not shown here. Identical values can stand only once. Like-named read-outs stand apart in the source and are kept apart here.

Key:
CDK2–cyclin A = target: T1, CDK2–cyclin A (Homo sapiens, UniProt P24941); assay: Lanthascreen kinase binding assay, CDK2; conditions: for Lanthascreen signal, sheet CDK2: raw replicates
T1 construct: purchased Thermo Fisher
Protocol: (§1) Lanthascreen experiments were performed using commercially available reagents (Thermo Fisher) and according to the manufacturer’s instructions.

CDK9–cyclin T = target: T2, CDK9–cyclin T (Homo sapiens, UniProt P50750); assay: Lanthascreen kinase binding assay, CDK9; conditions: for Lanthascreen TR-FRET signal (raw ratio), sheet CDK9: duplicates
T2 construct: purchased Thermo Fisher
T2 sequence (P50750 whole entry): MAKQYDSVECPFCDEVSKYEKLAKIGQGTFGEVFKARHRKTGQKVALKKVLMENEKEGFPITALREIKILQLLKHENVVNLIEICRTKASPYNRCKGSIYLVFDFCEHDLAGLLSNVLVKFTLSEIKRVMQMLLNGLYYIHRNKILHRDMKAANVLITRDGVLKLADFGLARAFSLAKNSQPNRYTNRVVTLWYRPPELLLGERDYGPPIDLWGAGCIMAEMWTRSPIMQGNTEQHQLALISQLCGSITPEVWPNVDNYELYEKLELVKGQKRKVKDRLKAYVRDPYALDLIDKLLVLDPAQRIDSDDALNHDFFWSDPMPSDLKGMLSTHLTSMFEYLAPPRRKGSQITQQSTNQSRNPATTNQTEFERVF
T2 sequence (O60563 whole entry partner): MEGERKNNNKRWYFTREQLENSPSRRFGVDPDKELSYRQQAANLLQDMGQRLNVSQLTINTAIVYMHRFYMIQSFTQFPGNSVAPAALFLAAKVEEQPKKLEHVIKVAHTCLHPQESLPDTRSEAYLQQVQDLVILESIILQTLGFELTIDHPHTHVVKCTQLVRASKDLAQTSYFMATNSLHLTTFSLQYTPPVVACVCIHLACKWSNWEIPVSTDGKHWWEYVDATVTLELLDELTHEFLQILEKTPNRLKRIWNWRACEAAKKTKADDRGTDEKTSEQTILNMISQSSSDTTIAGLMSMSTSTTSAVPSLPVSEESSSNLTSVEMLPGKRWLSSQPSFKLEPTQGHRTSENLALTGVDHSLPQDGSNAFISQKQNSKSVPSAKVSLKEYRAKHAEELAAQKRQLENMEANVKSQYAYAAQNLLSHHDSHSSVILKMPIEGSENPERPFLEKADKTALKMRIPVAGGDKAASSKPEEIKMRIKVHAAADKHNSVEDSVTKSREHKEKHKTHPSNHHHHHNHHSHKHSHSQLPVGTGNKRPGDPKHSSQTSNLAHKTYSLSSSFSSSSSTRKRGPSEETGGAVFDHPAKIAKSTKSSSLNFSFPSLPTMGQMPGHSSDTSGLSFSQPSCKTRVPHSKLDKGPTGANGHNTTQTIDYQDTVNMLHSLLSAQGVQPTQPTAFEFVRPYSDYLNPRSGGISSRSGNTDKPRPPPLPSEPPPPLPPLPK
Protocol: as §1

[1] = system: cyclin K–eGFP degradation reporter; assay: Cyclin K reporter stability analysis (dual-color cyclin K–eGFP reporter); format: cell-based, human; conditions: source data sheet correlations; read-out: DC50
Summary of the method: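 Cells (HEK293T–Cas9, reporter-expressing) at 1 × 10^6 ml^−1; 5 h compound or DMSO; flow cytometry; gMFI eGFP ÷ mCherry on round mCherry-positive events; normalized to 3 DMSO controls.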

For `Cc1ccc(C(=O)N2CSCC2C(=O)Nc2ncc(C)s2)o1` (centres unmarked) [dCeMM4], the “Lanthascreen signal, sheet CDK2” value (CDK2–cyclin A; Compound 0.038147 nM, experiment r13-r23) was 0.01291 and 0.01309, the “Lanthascreen signal, sheet CDK2” value (CDK2–cyclin A; Compound 0.038147 nM, experiment r48-r58) was 0.01261 and 0.01224 and the “Lanthascreen signal, sheet CDK2” value (CDK2–cyclin A; Compound 0.152588 nM, experiment r13-r23) was 0.01309 and 0.01357. The “Lanthascreen signal, sheet CDK2” value (CDK2–cyclin A; Compound 0.152588 nM, experiment r48-r58) was 0.01492 and 0.0157, the “Lanthascreen signal, sheet CDK2” value (CDK2–cyclin A; Compound 0.610352 nM, experiment r13-r23) was 0.01337 and 0.01331 and the “Lanthascreen signal, sheet CDK2” value (CDK2–cyclin A; Compound 0.610352 nM, experiment r48-r58) was 0.01553 and 0.01443. For the same compound, the “Lanthascreen signal, sheet CDK2” value (CDK2–cyclin A; Compound 1.02544 nM, experiment r1-r11) was 0.008871 and 0.008854, the “Lanthascreen signal, sheet CDK2” value (CDK2–cyclin A; Compound 3.15521 nM, experiment r1-r11) was 0.01028 and 0.01056 and the “Lanthascreen signal, sheet CDK2” value (CDK2–cyclin A; Compound 9.46563 nM, experiment r1-r11) was 0.01086 and 0.009918. For the same compound, the “Lanthascreen signal, sheet CDK2” value (CDK2–cyclin A; Compound 9.76563 nM, experiment r13-r23) was 0.01301 and 0.01353, the “Lanthascreen signal, sheet CDK2” value (CDK2–cyclin A; Compound 9.76563 nM, experiment r48-r58) was 0.01491 and 0.01554 and the “Lanthascreen signal, sheet CDK2” value (CDK2–cyclin A; Compound 31.5521 nM, experiment r1-r11) was 0.008252 and 0.009758. For the same compound, the “Lanthascreen signal, sheet CDK2” value (CDK2–cyclin A; Compound 39.0625 nM, experiment r13-r23) was 0.01344 and 0.01357, the “Lanthascreen signal, sheet CDK2” value (CDK2–cyclin A; Compound 39.0625 nM, experiment r48-r58) was 0.01615 and 0.01531 and the “Lanthascreen signal, sheet CDK2” value (CDK2–cyclin A; Compound 99.3891 nM, experiment r1-r11) was 0.01148 and 0.009734. For the same compound, the “Lanthascreen signal, sheet CDK2” value (CDK2–cyclin A; Compound 156.25 nM, experiment r13-r23) was 0.01338 and 0.01316, the “Lanthascreen signal, sheet CDK2” value (CDK2–cyclin A; Compound 156.25 nM, experiment r48-r58) was 0.01495 and 0.01468 and the “Lanthascreen signal, sheet CDK2” value (CDK2–cyclin A; Compound 315.521 nM, experiment r1-r11) was 0.01013 and 0.01019. For the same compound, the “Lanthascreen signal, sheet CDK2” value (CDK2–cyclin A; Compound 625 nM, experiment r13-r23) was 0.01286 and 0.01329, the “Lanthascreen signal, sheet CDK2” value (CDK2–cyclin A; Compound 625 nM, experiment r48-r58) was 0.01515 and 0.01544 and the “Lanthascreen signal, sheet CDK2” value (CDK2–cyclin A; Compound 2500 nM, experiment r13-r23) was 0.01297 and 0.01246. For the same compound, the “Lanthascreen signal, sheet CDK2” value (CDK2–cyclin A; Compound 2500 nM, experiment r48-r58) was 0.0142 and 0.01439, the “Lanthascreen signal, sheet CDK2” value (CDK2–cyclin A; Compound 3155.21 nM, experiment r1-r11) was 0.01019 and 0.009543 and the “Lanthascreen signal, sheet CDK2” value (CDK2–cyclin A; Compound 10000 nM, experiment r13-r23) was 0.01011 and 0.01128. The “Lanthascreen signal, sheet CDK2” value (CDK2–cyclin A; Compound 10000 nM, experiment r48-r58) was 0.01389 and 0.01345, the “Lanthascreen signal, sheet CDK2” value (CDK2–cyclin A; Compound 10002 nM, experiment r1-r11) was 0.009534 and 0.01103 and the IC50 (CDK2–cyclin A; Lanthascreen, average, Extended Data Fig. 8, read-out: CDK2 IC50) was greater than 10000 nM. The IC50 (CDK2–cyclin A; Supplementary Table 2, read-out: Lanthascreen IC50 [nM] CDK2) was greater than 10000 nM, the IC50 (CDK9–cyclin T; Supplementary Table 2, read-out: Lanthascreen IC50 [nM] CDK9) was 2460 nM and the “Lanthascreen TR-FRET signal (raw ratio), sheet CDK9” value (CDK9–cyclin T; compound 0.038147 nM, second titration set (r13)) was 0.01401 and 0.01443. For the same compound, the “Lanthascreen TR-FRET signal (raw ratio), sheet CDK9” value (CDK9–cyclin T; compound 0.152588 nM, second titration set (r13)) was 0.01297 and 0.01342, the “Lanthascreen TR-FRET signal (raw ratio), sheet CDK9” value (CDK9–cyclin T; compound 0.610352 nM, second titration set (r13)) was 0.01434 and 0.01401 and the “Lanthascreen TR-FRET signal (raw ratio), sheet CDK9” value (CDK9–cyclin T; compound 1.02544 nM, first titration set (r1)) was 0.01509 and 0.01456. The “Lanthascreen TR-FRET signal (raw ratio), sheet CDK9” value (CDK9–cyclin T; compound 3.15521 nM, first titration set (r1)) was 0.01409 and 0.01238, the “Lanthascreen TR-FRET signal (raw ratio), sheet CDK9” value (CDK9–cyclin T; compound 9.46563 nM, first titration set (r1)) was 0.01419 and 0.01391 and the “Lanthascreen TR-FRET signal (raw ratio), sheet CDK9” value (CDK9–cyclin T; compound 9.76563 nM, second titration set (r13)) was 0.01424 and 0.01466. The “Lanthascreen TR-FRET signal (raw ratio), sheet CDK9” value (CDK9–cyclin T; compound 31.5521 nM, first titration set (r1)) was 0.01363 and 0.01274, the “Lanthascreen TR-FRET signal (raw ratio), sheet CDK9” value (CDK9–cyclin T; compound 39.0625 nM, second titration set (r13)) was 0.01378 and 0.01422 and the “Lanthascreen TR-FRET signal (raw ratio), sheet CDK9” value (CDK9–cyclin T; compound 99.3891 nM, first titration set (r1)) was 0.01334 and 0.01404. The “Lanthascreen TR-FRET signal (raw ratio), sheet CDK9” value (CDK9–cyclin T; compound 156.25 nM, second titration set (r13)) was 0.01404 and 0.01353, the “Lanthascreen TR-FRET signal (raw ratio), sheet CDK9” value (CDK9–cyclin T; compound 315.521 nM, first titration set (r1)) was 0.01521 and 0.01465 and the “Lanthascreen TR-FRET signal (raw ratio), sheet CDK9” value (CDK9–cyclin T; compound 625 nM, second titration set (r13)) was 0.01264 and 0.01274. The “Lanthascreen TR-FRET signal (raw ratio), sheet CDK9” value (CDK9–cyclin T; compound 2500 nM, second titration set (r13)) was 0.01019 and 0.009296, the “Lanthascreen TR-FRET signal (raw ratio), sheet CDK9” value (CDK9–cyclin T; compound 3155.21 nM, first titration set (r1)) was 0.008036 and 0.01025 and the “Lanthascreen TR-FRET signal (raw ratio), sheet CDK9” value (CDK9–cyclin T; compound 10000 nM, second titration set (r13)) was 0.006352 and 0.006436. The “Lanthascreen TR-FRET signal (raw ratio), sheet CDK9” value (CDK9–cyclin T; compound 10002 nM, first titration set (r1)) was 0.007034 and 0.007071 and the DC50 [1] was 1.21 µM.
